Test results as given in US20250214967A1, “FAK DEGRADERS, PHARMACEUTICAL COMPOSITIONS, AND THERAPEUTIC APPLICATIONS” (Berrybio (Shanghai) Limited, priority 2022, published 2025).

Molecular target: FAK (Homo sapiens (Human), UniProt Q05397)
Assay: FAK Degradation Assay (Western blot, FAK/GAPDH)
Format: cell-based
Settings: MDA-MB-231 cells, 24 h treatment, Western blot normalized to DMSO; for DC50: read-out: DC50 (half-maximal degradation concentration), FAK Degradation; for Dmax: read-out: Dmax (maximal degradation), FAK Degradation
Method: H2122 (4×10^5), MIA PaCa-2 (6×10s), or MDA-MB-231 cells (6×10^5) per well were seeded into a 6-well plate containing 2 mL of complete culture medium (RPMI-1640 for H2122 and MDA-MB-231, and DMEM/F12 for MIA PaCa-2, supplemented with 10% FBS and 1% penicillin/streptomycin). The cells were cultured overnight at 37° C. in the presence of 5% C02 before treated with a compound in a series of concentrations for 24 h. The cells were then washed with ice-cold Dulbecco's phosphate-buffered saline (DPBS). A radioimmuno-precipitation assay (RIPA) buffer was added to lyse the cells on ice for 20 min. The cells were then scrapped using cell scraper and collected in a 1.5 mL tube, which was centrifuged at 14,000 g and 4° C. for 15 min. The supernatant was collected and the total protein concentration of each sample was determined using a PIERCE™ BCA protein assay kit. The supernatant was diluted to the same protein concentration with the RIPA buffer after the BCA assay. Samples of the same protein amount were mixed with 4× a lithium dodecyl sulfate (LDS) sample buffer and boiled at 95° C. for 5 min. The denatured samples were used for electrophoresis.
For Western blot, the same volume containing ˜50 μg protein for each sample was loaded onto 4-12% Bis-Tris protein gel. The gel was run at 80 V for 0.5 h and at 120 V for 1 h. When the electrophoresis was completed, an IBLOT™ 2 gel transfer device was used to transfer FAK and GAPDH proteins at 20 V for 7 min. All the membranes were blocked in 5% nonfat dry milk in a TBST buffer at RT for 1 h and then incubated with primary antibodies (anti-FAK and anti-GAPDH) in a TBST buffer containing 5% BSA at 4° C. overnight. The membranes were washed with the TBST buffer and then incubated with secondary antibodies (goat anti-rabbit IgG H&L for FAK and goat anti-mouse IgG H&L for GAPDH) at room temperature for 1 h. Blots were visualized using an IMAGEQUANT™ LAS-4000. The chemiluminescent signals from ECL™ Western blotting reagents were captured. The band integrated intensity from each 16-bit blot image was used for quantitation. The FAK/GAPDH signal ratios of each sample were normalized using DMSO as a control and the normalized data for each compound were used to obtain its half-maximal degradation concentration (DC50) and maximal degradation (Dmax).

Sequence of FAK (Q05397 whole entry): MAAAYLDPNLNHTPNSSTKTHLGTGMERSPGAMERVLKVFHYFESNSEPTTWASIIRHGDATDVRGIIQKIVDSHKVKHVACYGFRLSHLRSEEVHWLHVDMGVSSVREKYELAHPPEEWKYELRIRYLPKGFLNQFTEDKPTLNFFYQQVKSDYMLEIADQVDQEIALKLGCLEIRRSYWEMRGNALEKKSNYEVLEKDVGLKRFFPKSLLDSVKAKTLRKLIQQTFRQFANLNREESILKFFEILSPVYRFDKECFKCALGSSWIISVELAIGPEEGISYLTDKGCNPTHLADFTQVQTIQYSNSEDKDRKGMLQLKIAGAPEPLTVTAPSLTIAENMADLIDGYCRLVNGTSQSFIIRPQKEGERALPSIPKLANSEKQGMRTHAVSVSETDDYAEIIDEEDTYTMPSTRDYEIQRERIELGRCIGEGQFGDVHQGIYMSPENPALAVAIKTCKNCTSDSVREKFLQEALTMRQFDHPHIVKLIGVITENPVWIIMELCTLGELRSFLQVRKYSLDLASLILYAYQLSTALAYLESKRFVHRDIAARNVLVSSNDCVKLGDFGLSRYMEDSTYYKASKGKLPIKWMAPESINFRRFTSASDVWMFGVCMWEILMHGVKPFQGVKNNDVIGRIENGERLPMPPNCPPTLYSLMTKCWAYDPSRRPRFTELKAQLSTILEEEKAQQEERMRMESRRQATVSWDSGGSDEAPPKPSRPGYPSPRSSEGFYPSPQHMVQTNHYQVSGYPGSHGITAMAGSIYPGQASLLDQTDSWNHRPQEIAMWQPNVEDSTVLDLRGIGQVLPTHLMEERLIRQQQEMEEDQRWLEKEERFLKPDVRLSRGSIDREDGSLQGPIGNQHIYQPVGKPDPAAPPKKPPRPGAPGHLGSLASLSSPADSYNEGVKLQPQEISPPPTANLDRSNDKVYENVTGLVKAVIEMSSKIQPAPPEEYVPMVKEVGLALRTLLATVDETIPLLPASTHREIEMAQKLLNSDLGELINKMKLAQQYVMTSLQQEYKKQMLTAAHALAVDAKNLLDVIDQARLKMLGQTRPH

Compound	DC50 [nM]	Dmax [%]
CN(c1nccnc1CNc1nc(Nc2cccc(C(=O)N3CC(OC4CCN(c5ccc6c(c5)C(=O)N(C5CCC(=O)NC5=O)C6=O)CC4)C3)c2)ncc1C(F)(F)F)S(C)(=O)=O (stereo not shown) [Compound A13, N-(3-(((2-((3-(3-((1-(2-(2,6-dioxopiperidin-3-yl)-1,3-dioxoisoindolin-5-yl)-piperidin-4-yl)oxy)azetidine-1-carbonyl)phenyl)amino)-5-(trifluoromethyl)pyrimidin-4-yl)-amino)methyl)pyrazin-2-yl)-N-methylmethanesulfonamide]	1.4	94
CN(c1ccccc1CNc1cc(Nc2ccc(CN3CC(Oc4ccc5c(c4)C(=O)N(C4CCC(=O)NC4=O)C5=O)C3)cc2)ncc1C(F)(F)F)S(C)(=O)=O (stereo not shown) [Compound A18, N-(2-(((2-((4-((3-((2-(2,6-Dioxopiperidin-3-yl)-1,3-dioxoisoindolin-5-yl)oxy)-azetidin-1-yl)methyl)phenyl)amino)-5-(trifluoromethyl)pyridin-4-yl)amino)methyl)phenyl)-N-methylmethanesulfonamide]	21	84
CN(c1ccccc1CNc1cc(Nc2ccc(C(=O)NC3CN(c4ccc5c(c4)C(=O)N(C4CCC(=O)NC4=O)C5=O)C3)cc2)ncc1C(F)(F)F)S(C)(=O)=O (stereo not shown) [Compound A20, N-(1-(2-(2,6-Dioxopiperidin-3-yl)-1,3-dioxoisoindolin-5-yl)azetidin-3-yl)-4-((4-((2-(N-methylmethylsulfonamido)benzyl)amino)-5-(trifluoromethyl)pyridin-2-yl)amino)-benzamide]	4.6	79
CN(c1nccnc1CNc1nc(Nc2cccc(C(=O)NC3CCN(CC4CCN(c5ccc6c(c5)C(=O)N(C5CCC(=O)NC5=O)C6=O)CC4)CC3)c2)ncc1C(F)(F)F)S(C)(=O)=O (stereo not shown) [Compound A10, N-(1-((1-(2-(2,6-Dioxopiperidin-3-yl)-1,3-dioxoisoindolin-5-yl)piperidin-4-yl)-methyl)piperidin-4-yl)-3-((4-(((3-(N-methylmethylsulfonamido)pyrazin-2-yl)methyl)amino)-5-(trifluoromethyl)pyrimidin-2-yl)amino)benzamide]	2.1	98
CN(c1nccnc1CNc1nc(Nc2cccc(C(=O)NC3CCN(c4ccc5c(c4)C(=O)N(C4CCC(=O)NC4=O)C5=O)CC3)c2)ncc1C(F)(F)F)S(C)(=O)=O (stereo not shown) [Compound A12, N-(1-(2-(2,6-dioxopiperidin-3-yl)-1,3-dioxoisoindolin-5-yl)piperidin-4-yl)-3-((4-(((3-(N-methylmethylsulfonamido)pyrazin-2-yl)methyl)amino)-5-(trifluoromethyl)pyrimidin-2-yl)amino)benzamide]	5.6	98
CN(c1ccccc1CNc1cc(Nc2ccc(CNC3CCN(c4ccc5c(c4)C(=O)N(C4CCC(=O)NC4=O)C5=O)CC3)c(F)c2)ncc1C(F)(F)F)S(C)(=O)=O (stereo not shown) [Compound A35, N-(2-(((2-((4-(((1-(2-(2,6-Dioxopiperidin-3-yl)-1,3-dioxoisoindolin-5-yl)-piperidin-4-yl)amino)methyl)-3-fluorophenyl)amino)-5-(trifluoromethyl)pyridin-4-yl)amino)-methyl)phenyl)-N-methylmethanesulfonamide]	8.1	95
CS(=O)(=O)c1cccc(CNc2nc(Nc3ccc4c(c3)CC(=O)N4CC3CCN(c4ccc5c(c4)C(=O)N(C4CCC(=O)NC4=O)C5=O)CC3)ncc2C(F)(F)F)c1 (stereo not shown) [Compound A23, 2-(2,6-dioxopiperidin-3-yl)-5-(4-((5-((4-((3-(methylsulfonyl)benzyl)amino)-5-(trifluoromethyl)pyrimidin-2-yl)amino)-2-oxoindolin-1-yl)methyl)piperidin-1-yl)isoindoline-1,3-dione]	1.3	96

More lines, in order of falling DC50, values ahead:

DC50 [nM]	Dmax [%]	Compound
1.3	93	CNC(=O)c1ccccc1Nc1cc(Nc2ccc(C(=O)NC3CCN(c4ccc5c(c4)C(=O)N(C4CCC(=O)NC4=O)C5=O)CC3)cc2)ncc1C(F)(F)F (stereo not shown) [Compound A21, 2-((2-((4-((1-(2-(2,6-Dioxopiperidin-3-yl)-1,3-dioxoisoindolin-5-yl)piperidin-4-yl)carbamoyl)phenyl)amino)-5-(trifluoromethyl)pyridin-4-yl)amino)-N-methylbenzamide]
1.3	96	CN(c1nccnc1CNc1nc(Nc2ccc(CNC3CCN(c4ccc5c(c4)C(=O)N(C4CCC(=O)NC4=O)C5=O)CC3)c(F)c2)ncc1C(F)(F)F)S(C)(=O)=O (stereo not shown) [Compound A30, N-(3-(((2-((4-(((1-(2-(2,6-dioxopiperidin-3-yl)-1,3-dioxoisoindolin-5-yl)piperidin-4-yl)amino)methyl)-3-fluorophenyl)amino)-5-(trifluoromethyl)pyrimidin-4-yl)amino)methyl)-pyrazin-2-yl)-N-methylmethanesulfonamide]
0.87	91	CN1Cc2cccc(Oc3nc(Nc4ccc(CNC5CCN(c6ccc7c(c6)C(=O)N(C6CCC(=O)NC6=O)C7=O)CC5)cc4)ncc3C(F)(F)F)c2C1=O (stereo not shown) [Compound A28, 2-(2,6-dioxopiperidin-3-yl)-5-(4-((4-((4-((2-methyl-3-oxoisoindolin-4-yl)oxy)-5-(trifluoromethyl)pyrimidin-2-yl)amino)benzyl)amino)piperidin-1-yl)isoindoline-1,3-dione]
0.83	94	CN(c1nccnc1CNc1nc(Nc2cccc(C(=O)N3CCC(N4CCN(c5ccc6c(c5)C(=O)N(C5CCC(=O)NC5=O)C6=O)CC4)CC3)c2)ncc1C(F)(F)F)S(C)(=O)=O (stereo not shown) [Compound A11, N-(3-(((2-((3-(4-(4-(2-(2,6-Dioxopiperidin-3-yl)-1,3-dioxoisoindolin-5-yl)-piperazin-1-yl)piperidine-1-carbonyl)phenyl)amino)-5-(trifluoromethyl)pyrimidin-4-yl)amino)-methyl)pyrazin-2-yl)-N-methylmethanesulfonamide]
0.78	95	COc1cc(CNC2CCN(c3ccc4c(c3)C(=O)N(C3CCC(=O)NC3=O)C4=O)CC2)c(F)cc1Nc1ncc(C(F)(F)F)c(Oc2cccc3c2C(=O)N(C)C3)n1 (stereo not shown) [Compound A52, 2-(2,6-Dioxopiperidin-3-yl)-5-(4-((2-fluoro-5-methoxy-4-((4-((2-methyl-3-oxoisoindolin-4-yl)oxy)-5-(trifluoromethyl)pyrimidin-2-yl)amino)benzyl)amino)piperidin-1-yl)-isoindoline-1,3-dione]
0.7	87	CS(=O)(=O)c1cccc(CNc2nc(Nc3ccc(CNC4CCN(c5ccc6c(c5)C(=O)N(C5CCC(=O)NC5=O)C6=O)CC4)cc3)ncc2C(F)(F)F)c1 (stereo not shown) [Compound A24, 2-(2,6-Dioxopiperidin-3-yl)-5-(4-((4-((4-((3-(methylsulfonyl)benzyl)amino)-5-(trifluoromethyl)pyrimidin-2-yl)amino)benzyl)amino)piperidin-1-yl)isoindoline-1,3-dione]
0.2	98	CNC(=O)c1ccccc1Nc1nc(Nc2ccc(CNC3CCN(c4ccc(C5CCC(=O)NC5=O)cc4)CC3)cc2)ncc1C(F)(F)F (stereo not shown) [Compound B2, 2-((2-((4-(((1-(4-(2,6-Dioxopiperidin-3-yl)phenyl)piperidin-4-yl)amino)methyl)-phenyl)amino)-5-(trifluoromethyl)pyrimidin-4-yl)amino)-N-methylbenzamide]
